Test results as given in patent US10829719B2, “Sodium methyl glycine-N,N-diacetic acid compound, process to prepare it and use thereof” (NOURYON CHEMICALS INTERNATIONAL B.V., priority 2017, dated 2020).

How the values were obtained:
[1] = Dissolution rate of granules in deionized water monitored by conductivity; type: physicochemical; details: for time needed (s) to reach 75% dissolved / time needed (s) to reach 90% dissolved / time needed (s) to reach 95% dissolved / time needed (s) to reach 100% dissolved: 1 gram granules in 75 gram deionized water, stirred, trisodium salt
Method: The dissolution rate of these granules was compared to the dissolution rate of the original granules that were not heat treated:
1 gram of granules was added in one shot to a stirred container filled with 75 gram deionized water, equipped with a conductivity measurement probe. The conductivity of the dispersion was monitored in time. The degree of dissolution was determined by dividing the conductivity by the value finally obtained when the sample was fully dissolved yielding a stable level of conductivity.
(The measurements were done in duplicate yielding the same result)

[2] = Free flowability and weight gain after storage in climate chamber at 40° C. and 75% relative humidity; type: physicochemical; details: mean of three dishes; for fraction free flowing (%) Original / weight gain (%) Original: non-treated sample, stored 5 days at 40° C. and 75% relative humidity; for fraction free flowing (%) Treated / weight gain (%) Treated: sample dried 4 hours at 160° C., then stored 5 days at 40° C. and 75% relative humidity
Method: The compounds obtained in Examples 1 and 3 were dried 4 hours at 160° C. Subsequently, 5 grams of each sample were distributed evenly over the bottom of a (separate) crystallization dish (diameter 10 cm) and stored for 5 days in a climate chamber at 40° C. and 75% relative humidity. As a reference also the non-treated samples, as well as a sample of Trilon M granules (Na3-MGDA solid ex BASF), were stored in the same climate chamber at the same time.
To improve reliability of the testing, three separate dishes of all samples were stored at the same conditions.
After five days the dishes were weighed and the gain in mass of the contents was determined.
To estimate the amount of material that was still free flowing, the dishes were first tapped gently and then were mounted vertically to estimate the amount of material that remained sticking on the glass surface versus the amount of granular material ending on the bottom.

| SMILES | time needed (s) to reach 75% dissolved [1] | time needed (s) to reach 90% dissolved [1] | time needed (s) to reach 95% dissolved [1] | time needed (s) to reach 100% dissolved [1] | dissolution compared to type I containing granules ([1]; type III containing granules versus original, not heat treated type I granules) | fraction free flowing (%) Original [2] | weight gain (%) Original [2] | fraction free flowing (%) Treated [2] | weight gain (%) Treated [2] |
| --- | --- | --- | --- | --- | --- | --- | --- | --- | --- |
| CC(C(=O)[O-])N(CC(=O)[O-])CC(=O)[O-].[Na+].[Na+].[Na+] (single isomer, unassigned) [type I, methyl glycine-N,N-diacetic acid trisodium salt, reference compound] | 40 s | 110 s | 160 s | 260 s | – | – | – | – | – |
| CC(C(=O)[O-])N(CC(=O)[O-])CC(=O)[O-].[Na+].[Na+].[Na+] (single isomer, unassigned) [type III, methyl glycine-N,N-diacetic acid trisodium salt] | 22 s | 36 s | 45 s | 90 s | dissolve much faster | – | – | – | – |
| CC(C(=O)[O-])N(CC(=O)[O-])CC(=O)[O-].[Na+].[Na+].[Na+] (centres unmarked) [Example 1, Na3-MGDA] | – | – | – | – | – | 40% | 11% | 65% | 27% |
| CC(C(=O)[O-])N(CC(=O)[O-])CC(=O)[O-].[Na+].[Na+].[Na+] (centres unmarked) [Example 3, Na3-MGDA] | – | – | – | – | – | 20% | 17% | 80% | 29% |
